Data on nine molecules can be found in patent publication US10618916B2, “Heterocyclic compounds as immunomodulators” (Incyte Corporation, priority 2018, dated 2020).

Read-outs that look alike come from different tables or passages of the source.

Assay [1] concerns the target PD-1/PD-L1 protein/protein interaction (recombinant human PD-L1 and human PD-1) (Homo sapiens (Human), UniProt Q9NZQ7). Nature of the assay: Homogeneous Time-Resolved Fluorescence (HTRF) PD-1/PD-L1 binding assay. As for the experimental part: Example A. Homogeneous Time-Resolved Fluorescence (HTRF) PD-1/PD-L1 Binding Assay
The assays were conducted in a standard black 384-well polystyrene plate with a final volume of 20 μL. Inhibitors were first serially diluted in DMSO and then added to the plate wells before the addition of other reaction components. The final concentration of DMSO in the assay was 1%. The assays were carried out at 25° C. in the PBS buffer (pH 7.4) with 0.05% Tween-20 and 0.1% BSA. Recombinant human PD-L1 protein (19-238) with a His-tag at the C-terminus was purchased from AcroBiosystems (PD1-H5229). Recombinant human PD-1 protein (25-167) with Fc tag at the C-terminus was also purchased from AcroBiosystems (PD1-H5257). PD-L1 and PD-1 proteins were diluted in the assay buffer and 10 μL was added to the plate well. Plates were centrifuged and proteins were preincubated with inhibitors for 40 minutes. The incubation was followed by the addition of 10 μL of HTRF detection buffer supplemented with Europium cryptate-labeled anti-human IgG (PerkinElmer-AD0212) specific for Fc and anti-His antibody conjugated to SureLight®-Allophycocyanin (APC, PerkinElmer-AD0059H). After centrifugation, the plate was incubated at 25° C. for 60 min. before reading on a PHERAstar FS plate reader (665 nm/620 nm ratio). Final concentrations in the assay were—3 nM PD1, 10 nM PD-L1, 1 nM europium anti-human IgG and 20 nM anti-His-Allophycocyanin. IC50 determination was performed by fitting the curve of percent control activity versus the log of the inhibitor concentration using the GraphPad Prism 5.0 software.
A general note: Time-resolved FRET reads energy transfer from a long-lived donor to a nearby acceptor.

Assay [2] deals with U2OS/PD-L1 cells and Jurkat-PD-1-SHP cells. Description: Src homology region 2 domain-containing phosphatase (SHP) assay. Format: cell-based. How it is done:
Example B. Src Homology Region 2 Domain-Containing Phosphatase (SHP) Assay
U2OS/PD-L1 cells (DiscoveRx Corporation) were maintained in McCoy's 5A medium with addition of 10% FBS, 0.25 μg/ml Puromycin. After removing the culture media, the cell medium was replaced with assay medium (RPMI1640 medium with 1% FBS). The U2OS/PD-L1 cells were then added in 384-well black clear bottom assay plate (CELLCOAT® Tissue Culture Plates, Greiner Bio-One) at 5000 cells per well in 20 μL assay medium. Test compounds were prepared by serial dilution in DMSO and 125 nL compound were first transferred to the 384 REMP plate well (Thermofisher) by ECHO liquid handler (Labcyte) followed with addition of 27.5 μL assay medium. 5 μL/well compounds in the assay medium were transferred to the cell plate with 0.05% DMSO in the final assay at […]. Jurkat-PD-1-SHP cells (DiscoveRx Corporation) were cultured in RPMI1640 medium supplemented with 10% FBS, 250 μg/ml Hygromycin B, 500 μg/ml G418. After the replacement of culture media with assay medium, 5,000 Jurkat-PD-1-SHP cells in 20 μL were dispensed into each well. The assay plate was incubated at 37° C., 5% CO2 for 2 hours before 2.5 μL PathHunter reagent 1 (DiscoveRx Corporation) were added to each well. The assay plate was shaken for 1 min at 350 rpm in the dark followed with addition of 10 μL PathHunter reagent 2 (DiscoveRx Corporation). Chemiluminescent signal was recorded with TopCount reader (Perkin Elmer) after incubation at room temperature for 1 hour. Wells with DMSO were served as the positive controls and wells containing no cells were used as negative controls. IC50 determination was performed by fitting the curve of percentage of control activity versus the log of the compound concentration using the GraphPad Prism 6.0 software.

Assay [3] concerns PD-L1 aAPC/CHO-K1 cells and Jurkat-PD-1-NFAT effector cells. Nature of the assay: Nuclear factor of activated T-cells (NFAT) assay. Format: cell-based. As for the experimental part:
Example C. Nuclear Factor of Activated T-Cells (NFAT) Assay
PD-L1 aAPC/CHO-K1 cells (Promega) were maintained in F-12 medium with addition of 10% FBS, 200 μg/ml Hygromycin B, 250 μg/ml Geneticin (G418). Jurkat-PD-1-NFAT effector cells (Promega) were cultured in RPMI 1640 medium supplemented with 10% FBS, 100 μg/ml Hygromycin B, 500 μg/ml G418. The culture media of PD-L1 aAPC/CHO-K1 cells were first replaced with assay medium (RPMI1640 medium with 1% FBS). The PD-L1 aAPC/CHO-K1 cells were then added in a white 384-well white clear bottom assay plate (CELLCOAT® Tissue Culture Plates, Greiner Bio-One) at 8000 per well in 10 μL assay medium. Test compounds were prepared by serial dilution in DMSO and 0.8 μL test compounds in DMSO were first transferred to the 384 REMP plate well (Thermofisher) by PlateMate Plus (Thermofisher) followed with addition of 50 μL plating medium. 5 μL compounds in the assay medium were transferred to the cells with 0.4% DMSO in the final assay at 2 μM. After removing the culture media, 10,000 Jurkat-PD-1-NFAT effector cells in 5 μL assay medium was dispensed into each well. The assay plate was incubated at 37° C., 5% CO2 for 24 hours. After the assay plate was equilibrated to room temp for 15 minutes, 20 µL/well of Bio-Glo™ reagent (Promega) were added. After 8 minutes incubation at room temperature, luminescence was read at with Pherastar microplate reader (BMG Labtech). The fold of induction (FOI) was calculated based on the ratio of luminescence normalized to the DMSO wells within each assay plate. The maximum percentage of induction was reported based on the ratio between the highest FOI of each compound and the maximum FOI of control compound within each assay plate. Wells with DMSO were served as the negative controls and wells containing control compound with the highest FOI were used as positive controls. EC50 determination was performed by fitting the curve of percent control activity versus the log of the compound concentration using the GraphPad Prism 6.0 software.

Chain of PD-1/PD-L1 protein/protein interaction (recombinant human PD-L1 and human PD-1) (Q9NZQ7 19-238): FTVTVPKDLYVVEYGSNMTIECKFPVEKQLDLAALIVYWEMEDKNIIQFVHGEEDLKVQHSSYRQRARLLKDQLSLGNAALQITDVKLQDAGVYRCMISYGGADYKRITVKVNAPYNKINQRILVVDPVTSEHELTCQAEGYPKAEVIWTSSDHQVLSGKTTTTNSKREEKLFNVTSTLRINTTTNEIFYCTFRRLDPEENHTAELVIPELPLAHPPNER

Consider `Cc1c(NC(=O)c2nc3c(n2C)CCN(C2CCC(O)CC2)C3)cccc1-c1cccc(NC(=O)c2nc3c(n2C)CCN(CCC24CCC(C(=O)O)(CC2)C4)C3)c1Cl` (single isomer, unassigned) [61 (compound 2), 4-(2-(2-((2-chloro-3′-(5-(4-hydroxycyclohexyl)-1-methyl-4,5,6,7-tetrahydro-1H-imidazo[4,5-c]pyridine-2-carboxamido)-2′-methyl-[1,1′-biphenyl]-3-yl)carbamoyl)-1-methyl-1,4,6,7-tetrahydro-5H-imidazo[4,5-c]pyridin-5-yl)ethyl)bicyclo[2.2.1]heptane-1-carboxylic acid], for which the IC50 in assay [1] is at most 5 nM; in assay [2], at most 10 nM. In assay [3], this molecule returned a half-maximal effective concentration (EC50) of 10 to 100 nM.
For the molecule `CN1CCc2c(nc(C(=O)Nc3cccc(-c4cccc(NC(=O)c5nc6c(n5C)CCN(CCC57CCC(C(=O)O)(CC5)C7)C6)c4Cl)c3Cl)n2C)C1` [Example 3, 4-(2-(2-((2,2′-dichloro-3′-(1,5-dimethyl-4,5,6,7-tetrahydro-1H-imidazo[4,5-c]pyridine-2-carboxamido)-[1,1′-biphenyl]-3-yl)carbamoyl)-1-methyl-1,4,6,7-tetrahydro-5H-imidazo[4,5-c]pyridin-5-yl)ethyl)bicyclo[2.2.1]heptane-1-carboxylic acid], the IC50 in assay [1] was at most 5 nM; in assay [2] (Homo sapiens, U2OS), at most 10 nM. In assay [3] (Cricetulus griseus, CHO-K1), this molecule had an EC50 of 10 to 100 nM.
With `CCN1CCc2c(nc(C(=O)Nc3cccc(-c4cccc(NC(=O)c5nc6c(n5C)CCN(CCC57CCC(C(=O)O)(CC5)C7)C6)c4Cl)c3Cl)n2C)C1` [Example 4, 4-(2-(2-((2,2′-dichloro-3′-(5-ethyl-1-methyl-4,5,6,7-tetrahydro-1H-imidazo[4,5-c]pyridine-2-carboxamido)-[1,1′-biphenyl]-3-yl)carbamoyl)-1-methyl-1,4,6,7-tetrahydro-5H-imidazo[4,5-c]pyridin-5-yl)ethyl)bicyclo[2.2.1]heptane-1-carboxylic acid], the IC50 is at most 5 nM in assay [1] and at most 10 nM in assay [2] (Homo sapiens, U2OS). In assay [3] (Cricetulus griseus, CHO-K1), this molecule displayed an EC50 of 10 to 100 nM.
For `CC(C)N1CCc2c(nc(C(=O)Nc3cccc(-c4cccc(NC(=O)c5nc6c(n5C)CCN(CCC57CCC(C(=O)O)(CC5)C7)C6)c4Cl)c3Cl)n2C)C1` [Example 5, 4-(2-(2-((2,2′-dichloro-3′-(5-isopropyl-1-methyl-4,5,6,7-tetrahydro-1H-imidazo[4,5-c]pyridine-2-carboxamido)-[1,1′-biphenyl]-3-yl)carbamoyl)-1-methyl-1,4,6,7-tetrahydro-5H-imidazo[4,5-c]pyridin-5-yl)ethyl)bicyclo[2.2.1]heptane-1-carboxylic acid], the IC50 in assay [1] is at most 5 nM; in assay [2] (Homo sapiens, U2OS), at most 10 nM. In assay [3] (Cricetulus griseus, CHO-K1), the EC50 is at most 10 nM.
For `Cn1c(C(=O)Nc2cccc(-c3cccc(NC(=O)c4nc5c(n4C)CCN(C4CCC4)C5)c3Cl)c2Cl)nc2c1CCN(CCC13CCC(C(=O)O)(CC1)C3)C2` [Example 6, 4-(2-(2-((2,2′-dichloro-3′-(5-cyclobutyl-1-methyl-4,5,6,7-tetrahydro-1H-imidazo[4,5-c]pyridine-2-carboxamido)-[1,1′-biphenyl]-3-yl)carbamoyl)-1-methyl-1,4,6,7-tetrahydro-5H-imidazo[4,5-c]pyridin-5-yl)ethyl)bicyclo[2.2.1]heptane-1-carboxylic acid], the IC50 in assay [1] was at most 5 nM; in assay [2] (Homo sapiens, U2OS), at most 10 nM. The molecule further registered an EC50 in assay [3] (Cricetulus griseus, CHO-K1) of 10 to 100 nM.
Take `Cn1c(C(=O)Nc2cccc(-c3cccc(NC(=O)c4nc5c(n4C)CCN(Cc4cc(C(=O)O)n[nH]4)C5)c3Cl)c2Cl)nc2c1CCN(CCC13CCC(C(=O)O)(CC1)C3)C2` [Example 26, 5-((2-((3′-(5-(2-(4-carboxybicyclo[2.2.1]heptan-1-yl)ethyl)-1-methyl-4,5,6,7-tetrahydro-1H-imidazo[4,5-c]pyridine-2-carboxamido)-2,2′-dichloro-[1,1′-biphenyl]-3-yl)carbamoyl)-1-methyl-1,4,6,7-tetrahydro-5H-imidazo[4,5-c]pyridin-5-yl)methyl)-1H-pyrazole-3-carboxylic acid]: the IC50 in assay [1] was at most 5 nM; in assay [2] (Homo sapiens, U2OS) it was at most 10 nM. Besides, the EC50 in assay [3] (Cricetulus griseus, CHO-K1) fell in the range of 10 to 100 nM.
Consider `Cn1c(C(=O)Nc2cccc(-c3cccc(NC(=O)c4nc5c(n4C)CCN(C4CCOCC4)C5)c3C#N)c2Cl)nc2c1CCN(CCC13CCC(C(=O)O)(CC1)C3)C2` [Example 47, 4-(2-(2-((2-chloro-2′-cyano-3′-(1-methyl-5-(tetrahydro-2H-pyran-4-yl)-4,5,6,7-tetrahydro-1H-imidazo[4,5-c]pyridine-2-carboxamido)-[1,1′-biphenyl]-3-yl)carbamoyl)-1-methyl-1,4,6,7-tetrahydro-5H-imidazo[4,5-c]pyridin-5-yl)ethyl)bicyclo[2.2.1]heptane-1-carboxylic acid], for which, in assay [1], the IC50 is at most 5 nM. In assay [3] (Cricetulus griseus, CHO-K1), this molecule showed an EC50 of 10 to 100 nM.
Regarding `C[C@@H](O)CN1CCc2c(nc(C(=O)Nc3cccc(-c4cccc(NC(=O)c5nc6c(n5C)CCN(CCC57CCC(C(=O)O)(CC5)C7)C6)c4Cl)c3C#N)n2C)C1` [Example 49, (R)-4-(2-(2-((2-chloro-2′-cyano-3′-(5-(2-hydroxypropyl)-1-methyl-4,5,6,7-tetrahydro-1H-imidazo[4,5-c]pyridine-2-carboxamido)-[1,1′-biphenyl]-3-yl)carbamoyl)-1-methyl-1,4,6,7-tetrahydro-5H-imidazo[4,5-c]pyridin-5-yl)ethyl)bicyclo[2.2.1]heptane-1-carboxylic Acid], the IC50 in assay [1] was at most 5 nM. In assay [3] (Cricetulus griseus, CHO-K1), this molecule displayed an EC50 of 10 to 100 nM.
For the molecule `Cn1c(C(=O)Nc2cccc(-c3cccc(NC(=O)c4nc5c(n4C)CCN(CCO)C5)c3C#N)c2Cl)nc2c1CCN(CCC13CCC(C(=O)O)(CC1)C3)C2` [Example 50, 4-(2-(2-((2-chloro-2′-cyano-3′-(5-(2-hydroxyethyl)-1-methyl-4,5,6,7-tetrahydro-1H-imidazo[4,5-c]pyridine-2-carboxamido)-[1,1′-biphenyl]-3-yl)carbamoyl)-1-methyl-1,4,6,7-tetrahydro-5H-imidazo[4,5-c]pyridin-5-yl)ethyl)bicyclo[2.2.1]heptane-1-carboxylic acid], the IC50 in assay [1] is at most 5 nM. Moreover, in assay [3] (Cricetulus griseus, CHO-K1), the EC50 lay in the range of 10 to 100 nM.

As a reminder, the IC50 is the midpoint of a concentration-inhibition curve. For orientation: EC50 means the concentration giving half of the maximal effect. A lower EC50 goes with a more potent agent.
